Target: recombinant poly(ADP-ribose) polymerase 2 (PARP2) (Homo sapiens, UniProt Q9UGN5)
Experiment: PARP2 chemiluminescent assay
Format: biochemical
Conditions: PARP2 enzyme activity, chemiluminescence, 40 ng enzyme/well
Description: The solution of recombinant poly(ADP-ribose) polymerase 1 and 2 (PARP1 and PARP2) (40 ng enzyme/well) and the compounds to be tested were mixed, respectively. The solutions were added to a 96-well plate coated with histone mixture, incubated at room temperature for 1 h, then 50 μL 0.3 ng/mL Streptavidin-HRP was added to each well. The plates were incubated for 30 minutes at room temperature. Finally, the plates were treated with streptavidin-HRP followed by addition of the ELISA ECL substrate to produce chemiluminescence that can be measured using a chemiluminescence reader. Inhibition of the tested compound to PARP1/2 enzyme activity was calculated according to the following formula. [formula] IC50 value is obtained by fitting the s-shaped dose response curve equation by using XL Fit software.

Chain of recombinant poly(ADP-ribose) polymerase 2 (PARP2) (Q9UGN5 whole entry): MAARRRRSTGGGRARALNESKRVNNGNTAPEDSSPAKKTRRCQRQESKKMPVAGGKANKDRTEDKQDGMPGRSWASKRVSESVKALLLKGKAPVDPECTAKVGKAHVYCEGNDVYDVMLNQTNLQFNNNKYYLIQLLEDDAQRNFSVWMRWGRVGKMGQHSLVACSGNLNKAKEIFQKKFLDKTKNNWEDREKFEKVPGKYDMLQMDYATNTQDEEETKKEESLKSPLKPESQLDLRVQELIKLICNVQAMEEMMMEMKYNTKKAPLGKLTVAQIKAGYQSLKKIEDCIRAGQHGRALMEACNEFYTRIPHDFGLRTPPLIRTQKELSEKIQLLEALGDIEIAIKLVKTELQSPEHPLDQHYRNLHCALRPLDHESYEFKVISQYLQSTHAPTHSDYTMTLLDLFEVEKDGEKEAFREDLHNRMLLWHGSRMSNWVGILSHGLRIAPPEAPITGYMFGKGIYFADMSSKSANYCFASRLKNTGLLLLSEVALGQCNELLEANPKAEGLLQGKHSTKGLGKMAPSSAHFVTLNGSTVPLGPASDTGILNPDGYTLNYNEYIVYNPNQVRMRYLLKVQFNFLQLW

Structure (SMILES)	IC50
CNC(=O)c1ccc(-n2cc3c(n2)CN(Cc2ccc4c([nH]c(=O)c5cc(F)nn54)c2F)C3)c(F)n1 [Example 56, 5-(5-((2,6-difluoro-4-oxo-4,5-dihydropyrazolo[1,5-a]quinoxalin-7-yl)methyl)-5,6-dihydropyrrolo[3,4-c]pyrazol-2(4H)-yl)-6-fluoro-N-methylpicolinamide]	2760 nM
CNC(=O)c1ccc(-n2cc3c(n2)CN(Cc2ccc4c([nH]c(=O)c5c(C(F)(F)F)cnn54)c2F)C3)c(F)n1 [Example 26, 5-(5-((6-fluoro-4-oxo-3-(trifluoromethyl)-4,5-dihydropyrazolo[1,5-a]quinoxalin-7-yl)methyl)-5,6-dihydropyrrolo[3,4-c]pyrazol-2(4H)-yl)-6-fluoro-N-methylpicolinamide]	64 nM
CNC(=O)c1ccc(-n2cc3c(c2)CN(Cc2ccc4c([nH]c(=O)c5c(F)cnn54)c2F)C3)c(F)n1 [Example 62, 5-(5-((3,6-difluoro-4-oxo-4,5-dihydropyrazolo[1,5-a]quinoxalin-7-yl)methyl)-5,6-dihydropyrrolo[3,4-c]pyrrol-2(4H)-yl)-6-fluoro-N-methylpicolinamide]	278 nM

Tested on: MDA-MB-436 cells
Experiment: Growth inhibition assay against BRCA mutant human breast cancer MDA-MB-436 cell line (CCK-8, 7 days)
Format: cell-based
Conditions: 168 h, MDA-MB-436, 7 days, read-out: IC50 (nM), proliferation of human breast cancer cells MDA-MB-436
Description: The cells were cultured in complete medium (DMEM medium+10% FBS+Insulin+glutathione). When the confluence reached about 80%, cells were digested and gently dispensed from the bottom of the dish with a 1 mL pipette. Cell suspension was collected and centrifuged at 500 rpm for 3 min. The supernatant was discarded, and the cell pellet were re-suspended in complete medium. The cells were seeded into a culture dish at an appropriate proportion, and then cultured in a 5% CO2 incubator at 37° C. The assay was carried out when the cells were in optimum condition and the confluence was reached 80%. Cells in the logarithmic growth phase were taken to centrifugate, and the culture supernatant was removed. The cells were resuspended in refresh complete medium and counted. The resuspended cells were seeded at 3000/well in a 96-well plate and incubated at 37° C., 5% CO2 incubator overnight. […] The solution was mixed by oscillation. 0.10% DMSO was used as the control.
The next day, the 96-well plate inoculated with cells was taken out from the incubator, and the culture supernatant was removed. Then fresh medium of 195 uL/well and 5 μL/well of 40× test compound solution as mentioned above were added into the 96 well plate, respectively. Finally, the plate was incubated for 7 days in a 37° C. 5% CO2 incubator. The medium containing compound was changed on the fourth day. After 7 days, 20 μL of CCK-8 was added to each well and shaken gently, then was cultured for 4 hours. The plate was shaken for 5 min after incubation, the absorbance values of 450 nm or 650 nm wavelengths were recorded respectively (OD=absorbance value of 450 nm−absorbance value of 650 nm) by using the multifunction readout instrument.
Data were analyzed by software GraphPad Prism 6.0. The inhibitory activity of compounds on cell proliferation was plotted using cell survival rate against the compound concentration as coordinates. Cell survival rate %=(ODcompound−ODbackground)/(ODDMSO−ODbackground)×100.
Table 2 summarizes the inhibitory effect data (IC50) of the compounds on the proliferation of human breast cancer cells MDA-MB-436.

Structure (SMILES)	IC50
CNC(=O)c1ccc(-n2cc3c(n2)CN(Cc2ccc4c([nH]c(=O)c5cc(F)nn54)c2F)C3)c(F)n1 [Example 56, 5-(5-((2,6-difluoro-4-oxo-4,5-dihydropyrazolo[1,5-a]quinoxalin-7-yl)methyl)-5,6-dihydropyrrolo[3,4-c]pyrazol-2(4H)-yl)-6-fluoro-N-methylpicolinamide]	4.66 nM
CNC(=O)c1ccc(-n2cc3c(n2)CN(Cc2ccc4c([nH]c(=O)c5c(C(F)(F)F)cnn54)c2F)C3)c(F)n1 [Example 26, 5-(5-((6-fluoro-4-oxo-3-(trifluoromethyl)-4,5-dihydropyrazolo[1,5-a]quinoxalin-7-yl)methyl)-5,6-dihydropyrrolo[3,4-c]pyrazol-2(4H)-yl)-6-fluoro-N-methylpicolinamide]	13 nM
CNC(=O)c1ccc(-n2cc3c(c2)CN(Cc2ccc4c([nH]c(=O)c5c(F)cnn54)c2F)C3)c(F)n1 [Example 62, 5-(5-((3,6-difluoro-4-oxo-4,5-dihydropyrazolo[1,5-a]quinoxalin-7-yl)methyl)-5,6-dihydropyrrolo[3,4-c]pyrrol-2(4H)-yl)-6-fluoro-N-methylpicolinamide]	0.44 nM
CNC(=O)c1ccc(-c2cc3c(o2)CN(Cc2ccc4c([nH]c(=O)c5c(F)cnn54)c2F)C3)cn1 [Example 46, 5-(5-((3,6-difluoro-4-oxo-4,5-dihydropyrazolo[1,5-a]quinoxalin-7-yl)methyl)-5,6-dihydro-4H-furo[2,3-c]pyrrol-2-yl)-N-methylpicolinamide]	2.16 nM
CNC(=O)c1ccc(-n2cc3c(n2)CN(Cc2ccc4c([nH]c(=O)c5c(C)cnn54)c2F)C3)c(Cl)n1 [Example 4, 5-(5-((6-fluoro-3-methyl-4-oxo-4,5-dihydropyrazolo[1,5-a]quinoxalin-7-yl)methyl)-5,6-dihydropyrrolo[3,4-c]pyrazol-2(4H)-yl)-6-chloro-N-methylpicolinamide]	91 nM
CNC(=O)c1ccc(-c2nc3c(s2)CN(Cc2ccc4c([nH]c(=O)c5c(C)cnn54)c2F)C3)cn1 [Example 33, 5-(5-((6-fluoro-3-methyl-4-oxo-4,5-dihydropyrazolo[1,5-a]quinoxalin-7-yl)methyl)-5,6-dihydro-4H-pyrrolo[3,4-d]thiazol-2-yl)-N-methylpicolinamide]	> 100 nM
CNC(=O)c1ccc(-c2cc3c(s2)CN(Cc2ccc4c([nH]c(=O)c5c(F)cnn54)c2F)C3)cn1 [Example 47, 5-(5-((3,6-difluoro-4-oxo-4,5-dihydropyrazolo[1,5-a]quinoxalin-7-yl)methyl)-5,6-dihydro-4H-thieno[2,3-c]pyrrol-2-yl)-N-methylpicolinamide]	14.4 nM
CNC(=O)c1ccc(-n2cc3c(n2)CCN(Cc2ccc4c([nH]c(=O)c5c(F)cnn54)c2F)C3)c(C)n1 [Example 23, 5-(5-((3,6-difluoro-4-oxo-4,5-dihydropyrazolo[1,5-a]quinoxalin-7-yl)methyl)-4,5,6,7-tetrahydro-2H-pyrazolo[4,3-c]pyridin-2-yl)-N,6-dimethylpicolinamide]	> 100 nM
CNC(=O)c1ccc(-c2nc3c(o2)CN(Cc2ccc4c([nH]c(=O)c5c(C)cnn54)c2F)C3)cn1 [Example 32, 5-(5-((6-fluoro-3-methyl-4-oxo-4,5-dihydropyrazolo[1,5-a]quinoxalin-7-yl)methyl)-5,6-dihydro-4H-pyrrolo[3,4-d]oxazol-2-yl)-N-methylpicolinamide]	18.4 nM
CNC(=O)c1ccc(N2CC3CN(Cc4ccc5c([nH]c(=O)c6c(C)cnn65)c4F)CC3C2)c(F)n1 (stereo not drawn) [Example 64, 6-fluoro-5-(5-((6-fluoro-3-methyl-4-oxo-4,5-dihydropyrazolo[1,5-a]quinoxalin-7-yl)methyl)hexahydropyrrolo[3,4-c]pyrrol-2(1H)-yl)-N-methylpicolinamide]	> 100 nM
CNC(=O)c1ccc(-n2cc3c(n2)CCN(Cc2ccc4c([nH]c(=O)c5c(F)cnn54)c2F)C3)cn1 [Example 22, 5-(5-((3,6-difluoro-4-oxo-4,5-dihydropyrazolo[1,5-a]quinoxalin-7-yl)methyl)-4,5,6,7-tetrahydro-2H-pyrazolo[4,3-c]pyridin-2-yl)-N-methylpicolinamide]	> 100 nM
CCNC(=O)c1ccc(-n2cc3c(n2)CN(Cc2ccc4c([nH]c(=O)c5c(C)cnn54)c2F)C3)c(F)n1 [Example 7, N-ethyl-6-fluoro-5-(5-((6-fluoro-3-methyl-4-oxo-4,5-dihydropyrazolo[1,5-a]quinoxalin-7-yl)methyl)-5,6-dihydropyrrolo[3,4-c]pyrazol-2(4H)-yl)picolinamide]	27.2 nM
CNC(=O)c1ccc(-n2cc3c(n2)CN(Cc2ccc4c([nH]c(=O)c5c(C)cnn54)c2F)C3)c(C)n1 [Example 2, 5-(5-((6-fluoro-3-methyl-4-oxo-4,5-dihydropyrazolo[1,5-a]quinoxalin-7-yl)methyl)-5,6-dihydropyrrolo[3,4-c]pyrazol-2(4H)-yl)-N,6-dimethylpicolinamide]	57 nM
CNC(=O)c1ccc(-n2cc3c(n2)CN(Cc2ccc4c([nH]c(=O)c5c(F)cnn54)c2F)C3)c(O)n1 [Example 17, 5-(5-((3,6-difluoro-4-oxo-4,5-dihydropyrazolo[1,5-a]quinoxalin-7-yl)methyl)-5,6-dihydropyrrolo[3,4-c]pyrazol-2(4H)-yl)-6-hydroxy-N-methylpicolinamide]	> 100 nM
CNC(=O)c1ccc(N2CC3CN(Cc4ccc5c([nH]c(=O)c6c(F)cnn65)c4F)CC3C2)c(F)n1 (stereo not drawn) [Example 61, 5-(5-((3,6-difluoro-4-oxo-4,5-dihydropyrazolo[1,5-a]quinoxalin-7-yl)methyl)hexahydropyrrolo[3,4-c]pyrrol-2(1H)-yl)-6-fluoro-N-methylpicolinamide]	> 100 nM
CNC(=O)c1ccc(-n2cc3c(n2)CN(Cc2ccc4c([nH]c(=O)c5c(C)cnn54)c2F)C3)c(F)n1 [Example 3, 5-(5-((6-fluoro-3-methyl-4-oxo-4,5-dihydropyrazolo[1,5-a]quinoxalin-7-yl)methyl)-5,6-dihydropyrrolo[3,4-c]pyrazol-2(4H)-yl)-6-fluoro-N-methylpicolinamide]	9.71 nM
CNC(=O)c1ccc(-n2nc3c(c2C)CN(Cc2ccc4c([nH]c(=O)c5c(F)cnn54)c2F)C3)cn1 [Example 40, 5-(5-((3,6-difluoro-4-oxo-4,5-dihydropyrazolo[1,5-a]quinoxalin-7-yl)methyl)-3-methyl-5,6-dihydropyrrolo[3,4-c]pyrazol-2(4H)-yl)-N-methylpicolinamide]	> 100 nM
CNC(=O)c1ccc(-n2cc3c(n2)CN(Cc2ccc4c([nH]c(=O)c5c(C)cnn54)c2F)C3)c(O)n1 [Example 5, 5-(5-((6-fluoro-3-methyl-4-oxo-4,5-dihydropyrazolo[1,5-a]quinoxalin-7-yl)methyl)-5,6-dihydropyrrolo[3,4-c]pyrazol-2(4H)-yl)-6-hydroxy-N-methylpicolinamide]	> 100 nM
CNC(=O)c1ccc(-c2nc3c(n2C)CN(Cc2ccc4c([nH]c(=O)c5c(F)cnn54)c2F)C3)cn1 [Example 44, 5-(5-((3,6-difluoro-4-oxo-4,5-dihydropyrazolo[1,5-a]quinoxalin-7-yl)methyl)-1-methyl-1,4,5,6-tetrahydropyrrolo[3,4-d]imidazol-2-yl)-N-methylpicolinamide]	> 100 nM
O=C(NC1CC1)c1ccc(-n2cc3c(n2)CN(Cc2ccc4c([nH]c(=O)c5c(F)cnn54)c2F)C3)cn1 [Example 20, 5-(5-((3,6-difluoro-4-oxo-4,5-dihydropyrazolo[1,5-a]quinoxalin-7-yl)methyl)-5,6-dihydropyrrolo[3,4-c]pyrazol-2(4H)-yl)-N-cyclopropylpicolinamide]	0.65 nM
CNC(=O)c1ccc(-n2cc3c(n2)CCN(Cc2ccc4c([nH]c(=O)c5c(F)cnn54)c2F)C3)c(F)n1 [Example 24, 5-(5-((3,6-difluoro-4-oxo-4,5-dihydropyrazolo[1,5-a]quinoxalin-7-yl)methyl)-4,5,6,7-tetrahydro-2H-pyrazolo[4,3-c]pyridin-2-yl)-6-fluoro-N-methylpicolinamide]	> 100 nM
